Data published in patent publication US6291676A, “Water-soluble derivatives of camptothecin/homocamptothecin” (priority 2000, dated 2001).

Experiments:
[1] = Fluorescence anisotropy titration: association with electroneutral DMPC vesicles; type: physicochemical
Experimental: (§1) Vesicle Preparation. Small unilamellar vesicle (SUV) suspensions were prepared the day of an experiment by the method of Burke et al. (T. G. Burke, A. K. Mishra, M. C. Wani, and M. E. Wall, Lipid Bilayer Partitioning and Stability of Camptothecin Drugs, Biochem., 32(20), 5352 (1993)). Briefly, stock lipid suspensions containing 200 mg/mL lipid in phosphate buffered saline (PBS, pH 7.4) were prepared by Vortex mixing for 5-10 min above the TM of the lipid. The lipid dispersions were then sonicated using a bath-type sonicator (Laboratory Supplies Co., Hicksville, N.Y.) for 3-4 h until they became optically clear. […] Each type of vesicle suspension was annealed for 30 min at 37° C. and then used in an experiment.
(§2) Fluorescence Instrumentation. Steady-state fluorescence measurements were obtained on a SLM Model 9850 spectrofluorometer with a thermostated cuvette compartment. This instrument was interfaced with an IBM PS/2 model 55 SX computer. Excitation and emission spectra were recorded with an excitation resolution of 8 nm and an emission resolution of 4 nm. In all cases spectra were corrected for background fluorescence and scatter from unlabeled lipids or from solvents by subtraction of the spectrum of a blank. Steady-state fluorescence intensity measurements were made in the absence of polarizers. Steady-state anisotropy (a) measurements were determined with the instrument in the "T-format" for simultaneous measurement of two polarized intensities. […] The anisotropy was calculated from a =(IVV -GIVH)/(IVV +2GIVH), where G=IHV /IHH and the subscripts refer to vertical and horizontal orientations of the excitation and emission polarizers, respectively.
(§3) Anisotropy measurements for camptothecins were conducted using exciting light in the range of 370 nm to 400 nm and long pass filters on each emission channel in order to isolate the drug's fluorescence signal from background scatter and/or residual fluorescence. […] The combination of exciting light and emission filters allowed us to adequately separate fluorescence from background signal. […]

[2] = Fluorescence anisotropy titration: association with negatively-charged DMPG vesicles; type: physicochemical
Experimental: as §1, §2, §3

[3] = Fluorescence emission spectra in solvents and vesicle suspensions; type: physicochemical; conditions: 37° C
Experimental: FIG. 1 is the fluorescence emission spectra of 1 μM of 7-(1-Aminoethyl)camptothecin (7AEC) in various solvents and suspensions such as phosphate buffered saline, ethanol, and phosphate buffered saline containing small unilamellar vesicles (SUVs) composed either of dimyristoylphosphatidylcholine (DMPC) or dimyristoylphosphatidlyglycerol (DMPG). Experiments were conducted at 37° C. using exciting light of 370 nm.
FIG. 2 is the fluorescence emission spectra of 4 μM of 7-[N-(4-methyl-1-piperazino) aminomethyl]-(20S)-camptothecin (CT-17) in various solvents and suspensions such as phosphate buffered saline, ethanol, and phosphate buffered saline containing small unilamellar vesicles (SUVs) composed either of DMPC or DMPG. Experiments were conducted at 37° C. using exciting light of 370 nm.
Fluorescence Instrumentation. Steady-state fluorescence measurements were obtained on a SLM Model 9850 spectrofluorometer with a thermostated cuvette compartment. This instrument was interfaced with an IBM PS/2 model 55 SX computer. Excitation and emission spectra were recorded with an excitation resolution of 8 nm and an emission resolution of 4 nm. In all cases spectra were corrected for background fluorescence and scatter from unlabeled lipids or from solvents by subtraction of the spectrum of a blank. Steady-state fluorescence intensity measurements were made in the absence of polarizers. […]

topoisomerase I = experiment: Topoisomerase I mediated DNA cleavage (cleavable complex induction); type: biochemical
Source text: Evaluation of the Relative Abilities of the Novel Polyamine Camptothecin Analogs to Induce Topoisomerase I Mediated DNA Single Strand Breaks. We have evaluated the abilities of the novel compounds of the present invention to inhibit the topoisomerase I enzyme. In these experiments the oligonucleotide was labeled at the 3'-end of the upper (scissile) strand with 32P-α-cordycepin and terminal transferase (Pommier, Y., Kohlhagen, G., Kohn, F., Leteurtre, F., Wani, M. C., and Wall, M. E. Proc. Natl. Acad. Sci. U.S.A. 92:8861-8865, 1995). Topoisomerase I (Top1) cleavage generates a 23mer that can be easily detected by electrophoresis and quantitated by Phosphorimager analysis. Tanizawa et al. (Tanizawa, A., Kohn, K. W., Kohlhagen, G., Leteurtre, F., and Pommier, Y. Biochemistry […]:7200-7206, 1995) have previously shown that camptothecin derivatives differ in the manner in which they stabilize the top1 cleavable complexes that they induce. The novel polyamine camptothecins of the present invention were compared in this assay. 0.35M NaCl was added to force top 1-mediated DNA religation and DNA cleavage was measured at various times after NaCl addition. FIG. 9 is a typical phosphoimager picture showing the timecourse of the effects of various camptothecins on the relaxation of DNA in the presence of topoisomerase I. Topoisomerase I-mediated cleavage generates DNA fragments that can be readily detected by electrophoresis and quantitated by phosphorimager analysis.
FIG. 10 is a phosphoimager picture showing the dose response of various camptothecin compounds described in the present invention on the relaxation of DNA in the presence of topoisomerase I. Topoisomerase I-mediated cleavage generates DNA fragments that can be readily detected by electrophoresis and quantitated by phosphorimager analysis as shown.
FIG. 11 contains a phosphoimager picture (bottom figure) showing the dose response effects of several of the novel polyamine camptothecins of the current invention on the relaxation of DNA in the presence of topoisomerase I. Topoisomerase I-mediated cleavage generates DNA fragments that can be readily detected by electrophoresis and quantitated by phosphorimager analysis (top figure).

## CC[C@@]1(O)C(=O)OCc2c1cc1n(c2=O)Cc2c-1nc1ccccc1c2CNN1CCN(C)CC1 [CT-17, 7-[N-(4-methyl-1-piperazino)aminomethyl]-(20S)-camptothecin]
[1]; PBS buffer, pH 7.4, physiological temperature, DMPC
  Overall association constant KDMPC: 30 M⁻¹
[1]; electroneutral DMPC membranes
  reduction in membrane binding relative to 7AEC (DMPC): greater than 2 fold
[2]; PBS buffer, pH 7.4, physiological temperature, DMPG
  Overall association constant KDMPG: 800 M⁻¹
[2]; negatively-charged DMPG membranes
  reduction in membrane binding relative to 7AEC (negatively-charged membranes): three-fold
[3]; PBS with lipid bilayers
  change of fluorescence emission upon introduction of lipid bilayers: increase in fluorescence intensity
[3]; liposomes of DMPC or DMPG, λex 370 nm
  shift of the fluorescence emission spectra in the presence of liposomes: shifts to shorter wavelength
Topoisomerase I; FIG. 11 quantitation
  potency at promoting DNA cleavage relative to camptothecin and SN-38: somewhat less potent
Topoisomerase I; topoisomerase I
  distribution of cleavage sites vs camptothecin or SN-38: comparable to those generated by camptothecin or 7-ethyl-10-hydroxycamptothecin (SN-38)
Topoisomerase I; topoisomerase I, 3'-32P-labeled oligonucleotide
  induction of cleavable complex formation: capable of inducing cleavable complex formation
